Assays:
[1] = system: MN9D cells, vector only (control cells); assay: Cell death (propidium iodide, flow cytometry), cells with empty vector; assay type: cell-based; settings: Vector only construct
From the text: (§1) Parkinson's disease (PD) is characterized by the presence of aggregates (Lewy bodies) composed of alpha-synculein and other cellular proteins within neurons. (Paleologou; Gandhi) These aggregates are believed to be a critical factor in the death of the neuron and in the etiology of PD (Paleologou; Schrag). Mutated alpha-synuclein, as observed in those individuals with familial PD caused by synculein mutations, causes increased aggregate formation (Paleologou). A cell culture model is used to study alpha-synuclein aggregate formation in vitro. This model was created by using molecular biological techniques to transfect a dopaminergic cell line with DNA constructs that, when expressed, generate large amounts of normal alpha-synuclein (over-expressed) or mutated human alpha synuclein within the cells essentially as described by Perez et al (Perez). […] These cells were then treated with Difluoromethylornithine (DFMO) to test the ability of this agent to reduce cell death.
(§2) Compared to control cells, treatment with DFMO (100-500 uM) increased survival in cells over-expressing alpha synuclein and in cells expressing mutated alpha synuclein by up to 54%.

[2] = system: MN9D cells over-expressing human alpha synuclein (wild type); assay: Cell death (propidium iodide, flow cytometry), cells over-expressing alpha synuclein; assay type: cell-based
From the text: as §1, §2

[3] = system: Huntington's disease (HD) mice; assay: Rotorod motor function test in HD mice; assay type: in vivo; settings: treated HD mice vs untreated HD mice, day 93 and day 105 after birth
Protocol: This example was carried out as schematically illustrated in FIG. 1.

[4] = system: MN9D cells expressing human A53T alpha-synuclein mutant; assay: Cell death (propidium iodide, flow cytometry), cells expressing mutated alpha synuclein; assay type: cell-based; settings: Mutated alpha synuclein construct
From the text: as §1, §2

[5] = represents % cells rescued by DFMO, 100 um

Structure (SMILES): NCCC[C@](N)(C(=O)O)C(F)F [DFMO, Alpha-difluoromethylornithine]
- % Dead Cells (DFMO) ([1]; DFMO-treated): 30.2%
- Reduction in % dead cells with DFMO [1, 5]: 9.6%
- % rescue compared to vector control for DFMO treated cells ([2]; Alpha-synuclein construct): 54%
- % Dead Cells (DFMO) ([2]; Alpha-synuclein construct, DFMO-treated): 29.8%
- % Dead Cells minus % DFMO-treated cells (100 um) ([2]; Alpha-synuclein construct, represents % cells rescued by DFMO, 100 um): 15%
- Increased survival compared to control cells ([2]; DFMO 100-500 uM, cells over-expressing alpha synuclein and cells expressing mutated alpha synuclein): up to 54%
- Rotorod motor function [3]: better
- % rescue compared to vector control for DFMO treated cells [4]: 40%
- % Dead Cells (DFMO) ([4]; DFMO-treated): 38.1%
- Reduction in % dead cells with DFMO (100 uM) [4, 5]: 13.5%

Reference: patent US20060281817A1, “Treatment for neurodegenerative diseases” (priority 2005, published 2006)
